In patent US20210317102A1, “INHIBITORS OF INTEGRATED STRESS RESPONSE PATHWAY” (Praxis Biotech LLC, priority 2019, published 2021):

Tests used:
[1] = tested on: ATF4 expression, HEK293T cells carrying the ATF4 luciferase reporter; experiment: ATF4 expression inhibition assay (ATF4 luciferase reporter); format: cell-based; conditions: Homo sapiens, HEK-293T, 100 nM thapsigargin, 3 hours
Experimental: The ATF4 reporter was prepared by fusing the human full length 5′UTR of ATF4 (NCBI Accession No. BC022088.2) upstream of the firefly luciferase coding sequence lacking the initiator methionine. The fused sequence was cloned into pLenti-EFla-C-Myc-DDK-IRES-Puro cloning vector (Origen #PS100085) using standard methods. Virus production was carried out by using Lenti-X™ Packaging Single Shots Protocol (Clonetech #631276). Viral particles were used to transduce HEK293T cells (ATCC #CRL-3216, ATCC Manassas, Va.), which were subsequently selected with puromycin to generate stable cell line. Cells were maintained at 37° C. and 5% CO2 in DMEM-F12 (Hyclone #SH30023.02) supplemented with 10% heat-inactivated fetal bovine serum (Gibco #16000-044), 2 mM L-glutamine (Gibco #25030-081), 100 U/ml penicillin, and 100 μg/ml streptomycin (Gibco #^15140-122).
HEK293T cells carrying the ATF4 luciferase reporter were plated on 96-well plates (Nunc) at 10,000 cells per well. Cells were treated two days after seeding with 100 nM thapsigargin (Tg) (Sigma-Aldrich #T9033) in the presence of different concentrations of selected compounds ranging from 1 nM to 10 μM. Cells without treatment or cells treated with Tg alone were used as controls. Assay plates containing cells were incubated for 3 hours at 37° C.
Luciferase reactions were performed using Luciferase Assay System (Promega #E1501) as specified by the manufacturer. Luminescence was read with an integration time of 1 s and a gain of 110 using a Cytation-5 multi-mode microplate reader (BioTek). Relative luminescence units were normalized to Tg treatment (0% inhibition) and untreated cells (100% inhibition) and the percentage of ATF4 inhibition was calculated.
Accordingly, inhibition of ATF4 expression as a result of the test compound indicates suppression of the ISR pathway.

[2] = tested on: Chinese hamster ovary (CHO) cells; experiment: Protein synthesis assay (puromycin incorporation, western blot); format: cell-based; conditions: 2 hours, media alone = 100%; for activity at 1 µM: Cricetulus griseus, unstressed CHO cells (without Tg), 1 μM test compound, read-out: % Protein synthesis relative to untreated (1 μM test compound); for % Recovery of protein synthesis (1 μM test compound): stressed CHO cells, 300 nM Tg plus 1 μM test compound, Tg alone = 0%
Experimental: Chinese hamster ovary (CHO) cells were maintained at 37° C. and 5% CO2 in Dulbecco's Modified Eagle's Media (DMEM) supplemented with 10% fetal bovine serum, 2 mM L-glutamine, 100 U/ml penicillin, and 100 μg/ml streptomycin. After reaching 80% of confluence, cells were detached and seeded on 6 well plates in complete media, allowed to recover overnight and treated for 2 hours with 1 μM of the test compound (to assess protein synthesis levels in unstressed condition), or for 2 hours with 300 nM Tg in the presence of 1 μM of the test compound (to assess the recovery of protein synthesis in a stressed condition). Cells with Tg alone were used as controls.
After the 2 hours treatments, media were replaced by adding 10 μg/ml puromycin (Sigma Aldrich #P8833) in complete media for 30 min. Media were removed and cells were lysed with SDS-PAGE lysis buffer. Lysates were transferred to 1.5 ml tubes and sonicated for 3 min and total protein amount were quantified using BCA Protein Assay Kit (Pierce). Equal amount of protein (30 μg) was loaded on SDS-PAGE gels. Proteins were transferred onto […] PVDF membranes (BioRad) and probed with primary antibodies diluted in Tris-buffered saline supplemented with 0.1% Tween 20 (Merck #S6996184 505) and 3% bovine serum albumin (Rockland #BSA-50).
Puromycin (12D10) (Merck #MABE343) and j-actin (Sigma Aldrich #A5441) antibodies were used as primary antibody. A HRP-conjugated secondary antibody (Rockland) was employed to detect immune-reactive bands using enhanced chemiluminescence (ECL Western Blotting Substrate, Pierce). Quantification of protein bands was done by densitometry using ImageJ software.
Percent increase of protein synthesis in unstressed cells (without Tg treatment) in the presence of media alone or certain test compounds is shown in Table 3. The percentage levels were normalized to the media alone condition, which correspond to 100% protein synthesis.
Percent recovery of protein synthesis in stressed cells (with Tg treatment) due to the test compounds at 1 μM is also shown in Table 3. The levels were normalized to the media alone and Tg alone conditions, which correspond to 100% and 0% respectively.

SMILES	IC50 [1]	activity at 1 µM [2]	% Recovery of protein synthesis (1 μM test compound) [2]
O=C(COc1ccc(Cl)c(F)c1)N[C@H]1CC[C@H](CNC(=O)c2cccc(Cl)c2)CC1 [Compound 22, trans-3-chloro-N-((4-(2-(4-chloro-3-fluorophenoxy)acetamido)cyclohexyl)methyl)benzamide]	10.9 nM	83.3%	54.6%
O=C(COc1ccc(Cl)c(F)c1)N[C@H]1CC[C@H](CNC(=O)c2ccc(Cl)c(F)c2)CC1 [Compound 23, trans-4-chloro-N-((4-(2-(4-chloro-3-fluorophenoxy)acetamido)cyclohexyl)methyl)-3-fluorobenzamide]	1.27 nM	93%	74.1%
O=C(COc1ccc(Cl)c(F)c1)N[C@H]1CC[C@H](CNC(=O)c2ccc3ccc(Cl)cc3n2)CC1 [Compound 24, trans-7-chloro-N-((4-(2-(4-chloro-3-fluorophenoxy)acetamido)cyclohexyl)methyl)quinoline-2-carboxamide]	> 1000 nM	138%	49.1%
O=C(N[C@H]1CC[C@H](CNC(=O)c2cc3cc(Cl)ccc3o2)CC1)c1ccc2cc(Cl)ccc2n1 [Compound 25, trans-6-chloro-N-(4-((5-chlorobenzofuran-2-carboxamido)methyl)cyclohexyl)quinoline-2-carboxamide]	1.56 nM	266%	223.3%
O=C(NC[C@H]1CC[C@H](NC(=O)c2cc3cc(Cl)ccc3o2)CC1)c1cc2cc(Cl)ccc2o1 [Compound 26, trans-5-chloro-N-((4-(5-chlorobenzofuran-2-carboxamido)cyclohexyl)methyl)benzofuran-2-carboxamide]	0.6 nM	173%	113.4%
O=C(NC[C@H]1CC[C@H](NCCOc2ccc(Cl)c(F)c2)CC1)c1cc2cc(Cl)ccc2o1 [Compound 27, trans-5-chloro-N-((4-((2-(4-chloro-3-fluorophenoxy)ethyl)amino)cyclohexyl)methyl)benzofuran-2-carboxamide]	< 1000 nM	126%	38.1%
O=C(NC[C@H]1CC[C@H](NC(=O)COc2ccc(Cl)c(F)c2)CC1)Nc1ccc(Cl)cc1 [Compound 28, trans-2-(4-chloro-3-fluorophenoxy)-N-(4-((3-(4-chlorophenyl)ureido)methyl)cyclohexyl)acetamide]	3.1 nM	68%	28.6%
O=C(Cc1ccc(Cl)cc1)NC[C@H]1CC[C@H](NC(=O)COc2ccc(Cl)c(F)c2)CC1 [Compound 29, trans-2-(4-chloro-3-fluorophenoxy)-N-(4-((2-(4-chlorophenyl)acetamido)methyl)cyclohexyl)acetamide]	12.5 nM	70.9%	1.3%
O=C(COc1cccc(Cl)c1)NC[C@H]1CC[C@H](NC(=O)COc2ccc(Cl)c(F)c2)CC1 [Compound 30, trans-2-(4-chloro-3-fluorophenoxy)-N-(4-((2-(3-chlorophenoxy)acetamido)methyl)cyclohexyl)acetamide]	< 1000 nM	110%	0.4%
CC(C)(C(=O)NC[C@H]1CC[C@H](NC(=O)COc2ccc(Cl)cc2)CC1)c1ccc(Cl)cc1 [Compound 31, trans-N-((4-(2-(4-chlorophenoxy)acetamido)cyclohexyl)methyl)-2-(4-chlorophenyl)-2-methylpropanamide]	< 1000 nM	120%	66.2%
CC(C)(C(=O)NC[C@H]1CC[C@H](NC(=O)COc2ccc(Cl)c(F)c2)CC1)c1ccc(Cl)cc1 [Compound 32, trans-N-((4-(2-(4-chloro-3-fluorophenoxy)acetamido)cyclohexyl)methyl)-2-(4-chlorophenyl)-2-methylpropanamide]	> 1000 nM	162%	69.7%
O=C(COc1ccc(Cl)cc1)N[C@H]1CC[C@H](CNC2CCc3cc(Cl)ccc3C2)CC1 (stereo partly drawn) [Compound 33, trans-N-(4-(((6-chloro-1,2,3,4-tetrahydronaphthalen-2-yl)amino)methyl)cyclohexyl)-2-(4-chlorophenoxy)acetamide]	> 1000 nM	599%	–
O=C(COc1ccc(Cl)cc1)N[C@H]1CC[C@H](NC(=O)C2COc3ccc(Cl)cc3N2)CC1 (stereo partly drawn) [Compound 34, trans-6-chloro-N-(4-(2-(4-chlorophenoxy)acetamido)cyclohexyl)-3,4-dihydro-2H-benzo[b][1,4]oxazine-3-carboxamide]	> 1000 nM	137%	105.2%
CN1CC(C(=O)N[C@H]2CC[C@H](NC(=O)COc3ccc(Cl)cc3)CC2)Oc2ccc(Cl)cc21 (stereo partly drawn) [Compound 83, trans-6-chloro-N-(4-(2-(4-chlorophenoxy)acetamido)cyclohexyl)-4-methyl-3,4-dihydro-2H-benzo[b][1,4]oxazine-2-carboxamide]	19.3 nM	148%	98.4%
O=C(Cc1ccc(Cl)cc1)NC[C@H]1CC[C@H](NC(=O)COc2ccc(Cl)cc2)CC1 [Compound 84, trans-2-(4-chlorophenoxy)-N-(4-((2-(4-chlorophenyl)acetamido)methyl)cyclohexyl)acetamide]	18.3 nM	135%	35.0%
CN1C[C@H](C(=O)N[C@H]2CC[C@H](NC(=O)COc3ccc(Cl)cc3)CC2)Oc2ccc(Cl)cc21 [Compound 85, trans-(R)-6-chloro-N-(4-(2-(4-chlorophenoxy)acetamido)cyclohexyl)-4-methyl-3,4-dihydro-2H-benzo[b][1,4]oxazine-2-carboxamide]	44 nM	124%	31.6%
CN1C[C@@H](C(=O)N[C@H]2CC[C@H](NC(=O)COc3ccc(Cl)cc3)CC2)Oc2ccc(Cl)cc21 [Compound 86, trans-(S)-6-chloro-N-(4-(2-(4-chlorophenoxy)acetamido)cyclohexyl)-4-methyl-3,4-dihydro-2H-benzo[b][1,4]oxazine-2-carboxamide]	12.3 nM	125%	108.1%
CCN1CC(C(=O)N[C@H]2CC[C@H](NC(=O)COc3ccc(Cl)cc3)CC2)Oc2ccc(Cl)cc21 (stereo partly drawn) [Compound 87, trans-6-chloro-N-(4-(2-(4-chlorophenoxy)acetamido)cyclohexyl)-4-ethyl-3,4-dihydro-2H-benzo[b][1,4]oxazine-2-carboxamide]	90.2 nM	147%	71.8%
CCN1C[C@H](C(=O)N[C@H]2CC[C@H](NC(=O)COc3ccc(Cl)cc3)CC2)Oc2ccc(Cl)cc21 [Compound 88, trans-(R)-6-chloro-N-(4-(2-(4-chlorophenoxy)acetamido)cyclohexyl)-4-ethyl-3,4-dihydro-2H-benzo[b][1,4]oxazine-2-carboxamide]	> 1000 nM	105%	28.6%
